{"source": "the SangsterLogP compilation"}
{"smiles": "OCc1cc2ccccc2s1", "logP": 2.08}
{"smiles": "O=Cc1sc2ccc(Cl)cc2c1Br", "logP": 3.89}
{"smiles": "COC(=O)c1sc2c(OC)ccc(OC)c2c1N", "logP": 2.97}
{"smiles": "COc1ccc(OC)c2sc(CO)cc12", "logP": 2.11}
{"smiles": "OCc1cc2cc(Cl)ccc2s1", "logP": 2.71}
{"smiles": "COC(=O)c1cc2cc(Cl)ccc2s1", "logP": 3.81}
{"smiles": "OCc1sc2ccc(Cl)cc2c1Br", "logP": 3.6}
{"smiles": "CN(C)N=Cc1cc2cc(Cl)ccc2s1", "logP": 4.18}
{"smiles": "O=Cc1cc2cc(Cl)ccc2s1", "logP": 2.94}
{"smiles": "COC(=O)c1cc2ccc([N+](=O)[O-])cc2s1", "logP": 3.06}
{"smiles": "COc1ccc(OC)c2sc(C=O)cc12", "logP": 2.75}
{"smiles": "COC(=O)c1cc2ccccc2s1", "logP": 3.21}
{"smiles": "CN(C)N=Cc1sc2ccc(Cl)cc2c1Br", "logP": 4.54}
